According to US9163256B2, “Mutant receptors and their use in a nuclear receptor-based inducible gene expression system” (priority 2004, dated 2015):

Tests used:
CfEcR-DEF mutant L132M = CfEcR-DEF mutant L132M (Choristoneura fumiferana, UniProt O77255, L415M); assay: cell-based; format: cell-based; conditions: mutant L132M
Method: (§1) This construct was prepared in the same way as in switch 1.1 above except wild-type CfEcR-DEF was replaced with mutant CfEcR-DEF comprising a ligand binding domain comprising a substitution mutation selected from Table 1 below.
(§2) DNAs were transfected into mouse NIH3T3 cells (ATCC) as follows. Standard methods for culture and maintenance of the cells were followed. Cells were harvested and plated 96-well plates at 2,500 cells per well, in 50 μL of growth medium containing 10% fetal bovine serum (FBS). Twenty-four hours later, the cells were treated with 35 μL of serum-free growth medium containing either dimethylsulfoxide (DMSO; control) or a DMSO solution of ligand. The cells were then transfected using Superfect (Qiagen Inc.) transfection reagent. For each well, 0.625 μL of Superfect was mixed with 14.2 μL of serum-free growth medium. 0.16 μg of reporter construct and 0.04 μg of each receptor construct were added to the transfection reagent mix. The contents of the transfection mix were mixed in a vortex mixer and let stand at room temperature for 30 minutes. At the end of incubation, 15 μL of transfection mix was added to the cells. The cells were maintained at 37° C. and 5% CO2 for 48 hours in 5% FBS.
(§3) Reporter Assays: Cells were harvested 40 hours after adding ligands. 125 μL of passive lysis buffer (part of Dual-Luciferase reporter assay system from Promega Corporation) were added to each well of the […] plate. The plates were placed on a rotary shaker for 15 minutes. Twenty μL of lysate were assayed. Luciferase activity was measured using Dual-Luciferase reporter assay system from Promega Corporation following the manufacturer's instructions. Fold induction (FI) activities were calculated by dividing relative light units (“RLU”) in ligand treated cells with RLU in DMSO treated cells (untreated control).

CfEcR-DEF mutant F48N = CfEcR-DEF mutant F48N (Choristoneura fumiferana, UniProt O77255, F331N); assay: GAL4-driven luciferase reporter assay in NIH3T3 cells; format: cell-based; conditions: mutant F48N
Method: as §1, §2, §3

[1] = biological target: CfEcR-DEF mutant V107I/Y127E/T52V (Choristoneura fumiferana, UniProt O77255, T335V/V390I/Y410E); assay: as above; format: cell-based; conditions: mutant V107I/Y127E/T52V
Method: as §1, §2, §3

[2] = biological target: CfEcR-DEF mutant T52V/A110P (Choristoneura fumiferana, UniProt O77255, A393P/T335V); assay: as above; format: cell-based; conditions: mutant T52V/A110P
Method: as §1, §2, §3

CfEcR-DEF mutant M125W = CfEcR-DEF mutant M125W (Choristoneura fumiferana, UniProt O77255, M408W); assay: as above; format: cell-based; conditions: mutant M125W
Method: as §1, §2, §3

CfEcR-DEF mutant F109W = CfEcR-DEF mutant F109W (Choristoneura fumiferana, UniProt O77255, F392W); assay: cell-based; conditions: mutant F109W
Method: as §1, §2, §3

[3] = biological target: CfEcR-DEF mutant N119F/V96T (Choristoneura fumiferana, UniProt O77255, N402F/V379T); assay: cell-based; conditions: mutant N119F/V96T
Method: as §1, §2, §3

CfEcR-DEF mutant A110P = CfEcR-DEF mutant A110P (Choristoneura fumiferana, UniProt O77255, A393P); assay: cell-based; conditions: mutant A110P
Method: as §1, §2, §3

CfEcR-DEF mutant M54W = CfEcR-DEF mutant M54W (Choristoneura fumiferana, UniProt O77255, M337W); assay: cell-based; conditions: mutant M54W
Method: as §1, §2, §3

CfEcR-DEF mutant A110E = CfEcR-DEF mutant A110E (Choristoneura fumiferana, UniProt O77255, A393E); assay: cell-based; conditions: mutant A110E
Method: as §1, §2, §3

CfEcR-DEF mutant F109N = CfEcR-DEF mutant F109N (Choristoneura fumiferana, UniProt O77255, F392N); assay: cell-based; conditions: mutant F109N
Method: as §1, §2, §3

CfEcR-DEF mutant V96W = CfEcR-DEF mutant V96W (Choristoneura fumiferana, UniProt O77255, V379W); assay: cell-based; conditions: mutant V96W
Method: as §1, §2, §3

CfEcR-DEF mutant L234M = CfEcR-DEF mutant L234M (Choristoneura fumiferana, UniProt O77255, L517M); assay: cell-based; conditions: mutant L234M
Method: as §1, §2, §3

CfEcR-DEF mutant W238P = CfEcR-DEF mutant W238P (Choristoneura fumiferana, UniProt O77255, W521P); assay: cell-based; conditions: mutant W238P
Method: as §1, §2, §3

CfEcR-DEF mutant R95W = CfEcR-DEF mutant R95W (Choristoneura fumiferana, UniProt O77255, R378W); assay: cell-based; conditions: mutant R95W
Method: as §1, §2, §3

CfEcR-DEF mutant M125C = CfEcR-DEF mutant M125C (Choristoneura fumiferana, UniProt O77255, M408C); assay: cell-based; conditions: mutant M125C
Method: as §1, §2, §3

CfEcR-DEF mutant F48L = CfEcR-DEF mutant F48L (Choristoneura fumiferana, UniProt O77255, F331L); assay: cell-based; conditions: mutant F48L
Method: as §1, §2, §3

CfEcR-DEF mutant L132V = CfEcR-DEF mutant L132V (Choristoneura fumiferana, UniProt O77255, L415V); assay: cell-based; conditions: mutant L132V
Method: as §1, §2, §3

CfEcR-DEF mutant Y120W = CfEcR-DEF mutant Y120W (Choristoneura fumiferana, UniProt O77255, Y403W); assay: cell-based; conditions: mutant Y120W
Method: as §1, §2, §3

CfEcR-DEF mutant A110W = CfEcR-DEF mutant A110W (Choristoneura fumiferana, UniProt O77255, A393W); assay: cell-based; conditions: mutant A110W
Method: as §1, §2, §3

CfEcR-DEF mutant M125P = CfEcR-DEF mutant M125P (Choristoneura fumiferana, UniProt O77255, M408P); assay: cell-based; conditions: mutant M125P
Method: as §1, §2, §3

[4] = relative to max fold induction of GS-E ligand

Sequence of CfEcR-DEF mutant L132M (O77255 entry or part of it L415M): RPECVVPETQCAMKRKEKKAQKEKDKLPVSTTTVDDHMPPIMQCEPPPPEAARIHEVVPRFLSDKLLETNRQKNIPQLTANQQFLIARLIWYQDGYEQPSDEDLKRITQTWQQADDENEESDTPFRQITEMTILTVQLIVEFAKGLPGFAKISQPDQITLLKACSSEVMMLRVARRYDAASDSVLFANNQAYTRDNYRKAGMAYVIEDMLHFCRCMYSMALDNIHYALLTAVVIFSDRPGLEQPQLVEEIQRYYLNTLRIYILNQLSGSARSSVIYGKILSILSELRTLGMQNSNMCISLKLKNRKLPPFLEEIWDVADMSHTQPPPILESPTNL
Sequence of CfEcR-DEF mutant L132M (P28702 298-449, further chain): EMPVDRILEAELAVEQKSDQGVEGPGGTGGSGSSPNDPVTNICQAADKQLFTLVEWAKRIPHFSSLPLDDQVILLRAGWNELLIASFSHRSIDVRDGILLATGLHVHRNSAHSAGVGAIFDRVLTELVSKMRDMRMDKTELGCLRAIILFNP
Sequence of CfEcR-DEF mutant F109W (O77255 entry or part of it F392W): as the sequence (O77255 entry or part of it L415M) above, with F186W, M209L counted along it
Sequence of CfEcR-DEF mutant F109W (P28702 299-449, further chain): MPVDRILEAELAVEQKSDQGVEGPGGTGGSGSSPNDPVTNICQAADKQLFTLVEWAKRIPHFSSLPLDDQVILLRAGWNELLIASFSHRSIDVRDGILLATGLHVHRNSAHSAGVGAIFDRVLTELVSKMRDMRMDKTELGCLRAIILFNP
Sequence of CfEcR-DEF mutant Y120W (O77255 entry or part of it Y403W): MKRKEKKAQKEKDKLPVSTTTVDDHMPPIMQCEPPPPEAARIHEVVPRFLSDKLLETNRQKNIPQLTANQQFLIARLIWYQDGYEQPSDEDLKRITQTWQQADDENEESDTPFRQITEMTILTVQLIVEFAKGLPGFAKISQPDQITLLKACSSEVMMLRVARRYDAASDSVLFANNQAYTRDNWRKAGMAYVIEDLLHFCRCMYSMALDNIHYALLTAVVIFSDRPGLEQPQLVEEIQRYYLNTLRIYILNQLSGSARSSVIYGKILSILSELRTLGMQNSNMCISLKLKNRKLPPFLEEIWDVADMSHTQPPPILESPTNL
Sequence of CfEcR-DEF mutant Y120W (P28702 299-449, further chain): as the sequence (P28702 299-449, further chain) above
Sequence of CfEcR-DEF mutant M54W (O77255 entry or part of it M337W): as the sequence (O77255 entry or part of it L415M) above, with M131W, M209L counted along it
Sequence of CfEcR-DEF mutant M54W (P28702 299-449, further chain): as the sequence (P28702 299-449, further chain) above
Sequence of CfEcR-DEF mutant N119F/V96T (O77255 entry or part of it V379T/N402F): as the sequence (O77255 entry or part of it Y403W) above, with V161T, N184F, W185Y counted along it
Sequence of CfEcR-DEF mutant N119F/V96T (P28702 299-449, further chain): as the sequence (P28702 299-449, further chain) above
Sequence of CfEcR-DEF mutant R95W (O77255 entry or part of it R378W): as the sequence (O77255 entry or part of it Y403W) above, with R160W, W185Y counted along it
Sequence of CfEcR-DEF mutant R95W (P28702 299-449, further chain): as the sequence (P28702 299-449, further chain) above
Sequence of CfEcR-DEF mutant L132V (O77255 entry or part of it L415V): as the sequence (O77255 entry or part of it L415M) above, with M209V counted along it
Sequence of CfEcR-DEF mutant L132V (P28702 298-449, further chain): as the sequence (P28702 298-449, further chain) above
Sequence of CfEcR-DEF mutant F48N (O77255 entry or part of it F331N): as the sequence (O77255 entry or part of it L415M) above, with F125N, M209L counted along it
Sequence of CfEcR-DEF mutant F48N (P28702 299-449, further chain): as the sequence (P28702 299-449, further chain) above
Sequence of CfEcR-DEF mutant A110P (O77255 entry or part of it A393P): as the sequence (O77255 entry or part of it L415M) above, with A187P, M209L counted along it
Sequence of CfEcR-DEF mutant A110P (P28702 299-449, stated change not applied, further chain): as the sequence (P28702 299-449, further chain) above

Q: What does the source list for CC(C)(O)CC[C@@H](O)[C@](C)(O)[C@H]1CC[C@@]2(O)C3=CC(=O)[C@@H]4C[C@@H](O)[C@@H](O)C[C@]4(C)[C@H]3CC[C@]12C [20E, 20-hydroxyecdysone]?
A: EC50 (CfEcR-DEF mutant L132M): > 33 µM; Rel Max FI (CfEcR-DEF mutant L132M): 0.01; Rel Max FI (CfEcR-DEF mutant L132M; [4]): 0; Rel Max FI (CfEcR-DEF mutant F48N): 0; EC50 (CfEcR-DEF mutant F48N; read-out: EC50): > 33 µM; EC50 ([1]; read-out: EC50): > 33 µM; Rel Max FI [1, 4]: 0.04; EC50 ([2]; read-out: EC50): > 33 µM; Rel Max FI [2, 4]: 0; Rel Max FI (CfEcR-DEF mutant M125W): 0; EC50 (CfEcR-DEF mutant M125W; read-out: EC50): > 33 µM; EC50 (CfEcR-DEF mutant F109W; read-out: EC50): > 33 µM; Rel Max FI (CfEcR-DEF mutant F109W; [4]): 0; EC50 ([3]; read-out: EC50): ~8 µM; Rel Max FI [3, 4]: 0.46; EC50 (CfEcR-DEF mutant A110P; read-out: EC50): > 33 µM; Rel Max FI (CfEcR-DEF mutant A110P; [4]): 0; Rel Max FI (CfEcR-DEF mutant M54W): 0; EC50 (CfEcR-DEF mutant M54W; read-out: EC50): > 33 µM; EC50 (CfEcR-DEF mutant A110E; read-out: EC50): > 33 µM; Rel Max FI (CfEcR-DEF mutant A110E; [4]): 0; Rel Max FI (CfEcR-DEF mutant F109N): 0; EC50 (CfEcR-DEF mutant F109N; read-out: EC50): > 33 µM; Rel Max FI (CfEcR-DEF mutant V96W): 0; EC50 (CfEcR-DEF mutant V96W; read-out: EC50): > 33 µM; Rel Max FI (CfEcR-DEF mutant L234M): 0; EC50 (CfEcR-DEF mutant L234M; read-out: EC50): > 33 µM; EC50 (CfEcR-DEF mutant W238P; read-out: EC50): > 33 µM; Rel Max FI (CfEcR-DEF mutant W238P; [4]): 0; Rel Max FI (CfEcR-DEF mutant R95W): 0; EC50 (CfEcR-DEF mutant R95W; read-out: EC50): > 33 µM; Rel Max FI (CfEcR-DEF mutant M125C): 0.22; EC50 (CfEcR-DEF mutant F48L; read-out: EC50): > 33 µM; Rel Max FI (CfEcR-DEF mutant F48L; [4]): 0; EC50 (CfEcR-DEF mutant L132V; read-out: EC50): > 33 µM; Rel Max FI (CfEcR-DEF mutant L132V; [4]): 0; Rel Max FI (CfEcR-DEF mutant Y120W): 0; EC50 (CfEcR-DEF mutant Y120W; read-out: EC50): > 33 µM; Rel Max FI (CfEcR-DEF mutant A110W): 0; EC50 (CfEcR-DEF mutant A110W; read-out: EC50): > 33 µM; Rel Max FI (CfEcR-DEF mutant M125P): 1.29; EC50 (CfEcR-DEF mutant M125P; read-out: EC50): > 33 µM
